Results: US20150148551A1, “GENISTEIN FOR REDUCING LEVELS OF STORAGE COMPOUNDS IN THE TREATMENT AND/OR PREVENTION OF LYSOSOMAL STORAGE DISEASES (LSDS)” (3G THERAPEUTICS, INC., priority 2012, published 2015)

Legend:
NEU1 = experiment: DNA microarray, NEU1 expression in fibroblasts exposed to genistein; format: cell-based, human; conditions: 100 μM, 48 h vs DMSO
Procedure: (§1) The experiments were conducted to characterise the transcriptomic profile of human fibroblast cells exposed to genistein, and in particular to determine the expression of genes encoding lysosomal enzymes involved in metabolism (i.e. synthesis and degradation) of organic substances. The absence or deficiency of these enzymes' activity is responsible for occurrence of various lysosomal storage diseases (LSD) (including MPS). The tested hypothesis assumed that genistein influences the expression of many genes, among which there are genes coding for enzymes required in metabolism of compounds, which are pathologically stored in LSD. The results provide important information regarding genistein action on the molecular level within the range of gene expression modulation by this substance. The experiment was conducted in biological quintuplicates. Human dermal fibroblasts (HDFa) were exposed in vitro for 1, 24 or 48 hours to: 30, 60 or 100 μM of genistein; 0.05% DMSO (K1); or were untreated (control cells) (K2), and total RNA was isolated and analysed.
(§2) Fibroblast cells were grown in Dulbecco (DMEM) medium supplemented with 10% fetal bovine serum (FBS) with the addition of 1% antibiotics and anti-fungal agents at 37° C. in humidified atmosphere of 5% CO2, until the required confluency was obtained.
(§3) To determine the effect of tested compound on the transcriptom of the fibroblast cells, the growth medium was replaced with fresh medium, either non-supplemented (0.05% DMSO), or containing genistein (30, 60 or 100 μM, in 0.05% DMSO). The exposure was done for 1, 24 or 48 hours.
(§4) Total RNA was isolated from fibroblasts using High Pure RNA Isolation Kit according to the protocol and then it was quantitatively evaluated using Quant-It™ RiboGreen® Assay Kit.
(§5) Biotinylated cRNA was prepared using Ambion Total PrepAmp Kit for Illumina arrays.
(§6) Standard hybridization and quantitative image analysis procedures—Illumina hybridization protocol and Illumina scanning protocol, were used.
(§7) Processing of the results was done during data definition, including: background correction (using background subtraction method), normalization (using quantile normalization algorithm with Illumina GenomeStudio software package: gene expression module version 1.9.0) and summarization (using method, which sums the values of signal intensities from a set of probes).

GM2A = experiment: DNA microarray, GM2A expression in fibroblasts exposed to genistein; format: cell-based, human; conditions: for GM2A fold change Average: 48 h vs DMSO
Procedure: as §1, §2, §3, §4, §5, §6, §7

SMPD1 = experiment: DNA microarray, SMPD1 expression in fibroblasts exposed to genistein; format: cell-based, human; conditions: for SMPD1 fold change Average: 48 h vs DMSO
Procedure: as §1, §2, §3, §4, §5, §6, §7

SUMF1 = experiment: DNA microarray, SUMF1 expression in fibroblasts exposed to genistein; format: cell-based, human; conditions: for SUMF1 fold change Average: 48 h vs DMSO
Procedure: as §1, §2, §3, §4, §5, §6, §7

AGA = experiment: DNA microarray, AGA expression in fibroblasts exposed to genistein; format: cell-based, human; conditions: for AGA fold change Average: 48 h vs DMSO
Procedure: as §1, §2, §3, §4, §5, §6, §7

CTSA = experiment: DNA microarray, CTSA expression in fibroblasts exposed to genistein; format: cell-based, human; conditions: for CTSA fold change Average: 48 h vs DMSO
Procedure: as §1, §2, §3, §4, §5, §6, §7

CTSF = experiment: DNA microarray, CTSF expression in fibroblasts exposed to genistein; format: cell-based, human; conditions: for CTSF fold change Average: 48 h vs DMSO
Procedure: as §1, §2, §3, §4, §5, §6, §7

LGMN = experiment: DNA microarray, LGMN expression in fibroblasts exposed to genistein; format: cell-based, human; conditions: for LGMN fold change Average: 48 h vs DMSO
Procedure: as §1, §2, §3, §4, §5, §6, §7

[1] = system: Human dermal fibroblasts (HDFa); experiment: Transcriptomic profiling of fibroblasts with DNA microarrays, genes of synthesis and degradation; format: cell-based; conditions: cells cultured in the presence vs absence of genistein
Procedure: as §1, with “analysed. […]” for “analysed.”
Total RNA was isolated from fibroblasts using High Pure RNA Isolation Kit according to the protocol and then it was quantitatively evaluated using Quant-It™ RiboGreen® Assay Kit. […]
Standard hybridization and quantitative image analysis procedures—Illumina hybridization protocol and Illumina scanning protocol, were used. […]

With `O=c1c(-c2ccc(O)cc2)coc2cc(O)cc(O)c12` [genistein, 4′,5,7-trihydroxy-3-phenylchromen-4-one] the “NEU1 fold change Average” value (NEU1) was 2.492 fold change, the “GM2A fold change Average 1h30/1hK1” value (GM2A; 30 μM, 1 h vs 0.05% DMSO) was 1.5655 fold change and the “GM2A fold change Average” value (GM2A; 30 μM) was 1.0452 fold change. For the same molecule, the “GM2A fold change Average 1h60/1hK1” value (GM2A; 60 μM, 1 h vs 0.05% DMSO) was 1.181 fold change, the “GM2A fold change Average” value (GM2A; 60 μM) was 1.612 fold change and the “GM2A fold change Average 1h100/1hK1” value (GM2A; 100 μM, 1 h vs 0.05% DMSO) was 1.254 fold change. The “GM2A fold change Average” value (GM2A; 100 μM) was 1.536 fold change, the “SMPD1 fold change Average 1h30/1hK1” value (SMPD1; 30 μM, 1 h vs 0.05% DMSO) was 1.0078 fold change and the “SMPD1 fold change Average” value (SMPD1; 30 μM) was 1.2419 fold change. For the same molecule, the “SMPD1 fold change Average 1h60/1hK1” value (SMPD1; 60 μM, 1 h vs 0.05% DMSO) was 0.9831 fold change, the “SMPD1 fold change Average” value (SMPD1; 60 μM) was 1.457 fold change and the “SMPD1 fold change Average 1h100/1hK1” value (SMPD1; 100 μM, 1 h vs 0.05% DMSO) was 1.012 fold change. For the same molecule, the “SMPD1 fold change Average” value (SMPD1; 100 μM) was 1.673 fold change, the “SUMF1 fold change Average 1h30/1hK1” value (SUMF1; 30 μM, 1 h vs 0.05% DMSO) was 1.1314 fold change and the “SUMF1 fold change Average” value (SUMF1; 30 μM) was 1.2364 fold change. For the same molecule, the “SUMF1 fold change Average 1h60/1hK1” value (SUMF1; 60 μM, 1 h vs 0.05% DMSO) was 1.158 fold change, the “SUMF1 fold change Average” value (SUMF1; 60 μM) was 1.849 fold change and the “SUMF1 fold change Average 1h100/1hK1” value (SUMF1; 100 μM, 1 h vs 0.05% DMSO) was 1.095 fold change. The “SUMF1 fold change Average” value (SUMF1; 100 μM) was 1.705 fold change, the “AGA fold change Average 1h30/1hK1” value (AGA; 30 μM, 1 h vs 0.05% DMSO) was 1.0395 fold change and the “AGA fold change Average” value (AGA; 30 μM) was 1.3732 fold change. For the same molecule, the “AGA fold change Average 1h60/1hK1” value (AGA; 60 μM, 1 h vs 0.05% DMSO) was 0.9753 fold change, the “AGA fold change Average” value (AGA; 60 μM) was 1.864 fold change and the “AGA fold change Average 1h100/1hK1” value (AGA; 100 μM, 1 h vs 0.05% DMSO) was 0.9749 fold change. For the same molecule, the “AGA fold change Average” value (AGA; 100 μM) was 2.33 fold change, the “CTSA fold change Average 1h30/1hK1” value (CTSA; 30 μM, 1 h vs 0.05% DMSO) was 1.0199 fold change and the “CTSA fold change Average” value (CTSA; 30 μM) was 1.3019 fold change. For the same molecule, the “CTSA fold change Average 1h60/1hK1” value (CTSA; 60 μM, 1 h vs 0.05% DMSO) was 0.9816 fold change, the “CTSA fold change Average” value (CTSA; 60 μM) was 1.637 fold change and the “CTSA fold change Average 1h100/1hK1” value (CTSA; 100 μM, 1 h vs 0.05% DMSO) was 0.9643 fold change. For the same molecule, the “CTSA fold change Average” value (CTSA; 100 μM) was 1.571 fold change, the “CTSF fold change Average 1h30/1hK1” value (CTSF; 30 μM, 1 h vs 0.05% DMSO) was 1.0096 fold change and the “CTSF fold change Average” value (CTSF; 30 μM) was 1.417 fold change. For the same molecule, the “CTSF fold change Average 1h60/1hK1” value (CTSF; 60 μM, 1 h vs 0.05% DMSO) was 0.9505 fold change, the “CTSF fold change Average” value (CTSF; 60 μM) was 1.8 fold change and the “CTSF fold change Average 1h100/1hK1” value (CTSF; 100 μM, 1 h vs 0.05% DMSO) was 0.9458 fold change. The “CTSF fold change Average” value (CTSF; 100 μM) was 2.066 fold change, the “LGMN fold change Average 1h30/1hK1” value (LGMN; 30 μM, 1 h vs 0.05% DMSO) was 0.9392 fold change and the “LGMN fold change Average” value (LGMN; 30 μM) was 1.3309 fold change. The “LGMN fold change Average 1h60/1hK1” value (LGMN; 60 μM, 1 h vs 0.05% DMSO) was 0.9963 fold change, the “LGMN fold change Average” value (LGMN; 60 μM) was 1.61 fold change and the “LGMN fold change Average 1h100/1hK1” value (LGMN; 100 μM, 1 h vs 0.05% DMSO) was 0.8978 fold change. For the same molecule, the “LGMN fold change Average” value (LGMN; 100 μM) was 1.833 fold change, the “expression of genes of degradation” value [1] was “increased” and the “expression of genes of synthesis” value [1] was “reduced”.
